Tested on: PC-3 xenografts
Test: Ex vivo biodistribution in PC-3 xenograft bearing mice
Set-up: species or system BALB/C nu/nu mice
Conditions: mice bearing PC-3 xenografts, 4 h pi
Description: Animal studies were in compliance with the European guidelines for laboratory animal protection. BALB/C nu/nu mice were used and the experimental protocols were approved by the ethics committee for animal research in Uppsala (Sweden); permit number 00473/21.
The biodistribution profiles and tumor targeting of maSSS-/SES-PEG2-RM26, labeled with Re-188 or Tc-99 m, were compared head-to-head in the same batch of animals, inoculated with the same PC-3 cells-suspension. After acclimatization, animals were inoculated subcutaneously (right hind leg) with 7 × 10^6 freshly harvested PC-3 cells per animal, in PBS. After approximately four weeks solid tumors were present at the inoculation sites and the animals were randomly divided in groups of four.
For the ex vivo biodistribution experiments animals were injected via the tail vein with 50 pmol (120 kBq for Re-188 and 60 kBq for Tc-99 m) of the radiopeptide under evaluation, in 100 µl solution in PBS supplemented with 1% w/v BSA. Animals were euthanized at 1 h and 4 h post injection (pi) and tissues / organs of interest and tumors were collected, weighted and their radioactivity content was measured on a gamma counter. Each group comprised by four animals (n = 4).
Statistical analysis was performed using GraphPad Prism, employing a two-way ANOVA test with Tuckey’s posthoc analysis.

Row | ratio of activity uptake in caecum, Re-188 over Tc-99 m | Compound
1 | 2.3 fold | CC(C)C[C@H](NC(=O)C[C@H](O)[C@H](CC(C)C)NC(=O)[C@H](Cc1c[nH]cn1)NC(=O)CNC(=O)[C@@H](NC(=O)[C@H](C)NC(=O)[C@H](Cc1c[nH]c2ccccc12)NC(=O)[C@H](CCC(N)=O)NC(=O)[C@@H](Cc1ccccc1)NC(=O)COCCOCCNC(=O)[C@H](CO)NC(=O)[C@H](CCC(=O)O)NC(=O)[C@H](CO)NC(=O)CS)C(C)C)C(N)=O [maSES-PEG2-RM26, mercaptoacetyl-Ser-Glu-Ser-PEG2-RM26]
2 | 1.4 fold | CC(C)C[C@H](NC(=O)C[C@H](O)[C@H](CC(C)C)NC(=O)[C@H](Cc1c[nH]cn1)NC(=O)CNC(=O)[C@@H](NC(=O)[C@H](C)NC(=O)[C@H](Cc1c[nH]c2ccccc12)NC(=O)[C@H](CCC(N)=O)NC(=O)[C@@H](Cc1ccccc1)NC(=O)COCCOCCNC(=O)[C@H](CO)NC(=O)[C@H](CO)NC(=O)[C@H](CO)NC(=O)CS)C(C)C)C(N)=O [maSSS-PEG2-RM26, mercaptoacetyl-Ser-Ser-Ser-PEG2-RM26]

From article PMC11748620, “Evaluation of maSSS/maSES-PEG2-RM26 for their potential therapeutic use after labeling with Re-188. Could their [^99mTc]Tc-labeled counterparts be used to estimate dosimetry?” (EJNMMI Radiopharmacy and Chemistry, 2025)
